Reference: patent publication US10376520B2, “Methods for the treatment of cardiovascular disorders” (Galapagos NV, priority 2015, dated 2019)

Test system: RA patients
Assay: Atherogenic index, Study 2 (RA patients, monotherapy)
Format: in vivo, human
Method: As used herein, the term ‘atherogenic index’ refers to
Double-blind, placebo-controlled, monotherapy study in subjects with moderately to severely active RA who have an inadequate response to methotrexate (MTX) (oral or parenteral).
Twelve weeks of treatment with Compound 1 (dosed as a [Compound 1:HCl:3H2O]) at 50 mg, 100 mg, or 200 mg q.d.; or placebo. At Week 12, all subjects on placebo and the subjects on the 50 mg dose who have not achieved 20% improvement in swollen joint count (SJC66) and tender joint count (TJC68) will be assigned to 100 mg q.d. in a blinded fashion and will continue treatment until Week 24. Subjects in the other groups will maintain their randomized treatment until Week 24.
The atherogenic index has been identified to be a good predictor of cardiovascular disorders risks and is calculated as follows: […]

[1] = Placebo switching to 100 mg q.d., week 16
[2] = Placebo switching to 100 mg q.d., week 20
[3] = Placebo switching to 100 mg q.d., week 24

## O=C(Nc1nc2cccc(-c3ccc(CN4CCS(=O)(=O)CC4)cc3)n2n1)C1CC1 [Compound 1, cyclopropanecarboxylic acid {5-[4-(1,1-dioxo-thiomorpholin-4-ylmethyl)-phenyl]-[1,2,4]triazolo[1,5-a]pyridin-2yl}-amide]
100 mg q.d., week 4
  Atherogenic index Median CFB - 12 weeks results: -0.10 mmol/L
  Atherogenic index Median CFB - 24 weeks results: -0.10 mmol/L
  Atherogenic index Median percentage CFB - 12 weeks results: −3.65%
  Atherogenic index Median percentage CFB - 24 weeks results: −3.65%
100 mg q.d., week 8
  Atherogenic index Mean CFB - 12 weeks results: -0.13 mmol/L
  Atherogenic index Mean percentage CFB - 12 weeks results: −3.37%
  Atherogenic index Mean percentage CFB - 24 weeks results: −3.37%
  Atherogenic index Median CFB - 12 weeks results: -0.10 mmol/L
  Atherogenic index Median CFB - 24 weeks results: -0.10 mmol/L
  Atherogenic index Median percentage CFB - 24 weeks results: −1.45%
100 mg q.d., week 12
  Atherogenic index Mean CFB - 12 weeks results: -0.07 mmol/L
  Atherogenic index Mean percentage CFB - 24 weeks results: −1.37%
  Atherogenic index Median CFB - 12 weeks results: -0.10 mmol/L
  Atherogenic index Median CFB - 24 weeks results: -0.10 mmol/L
  Atherogenic index Median percentage CFB - 12 weeks results: −2.78%
  Atherogenic index Median percentage CFB - 24 weeks results: −2.78%
100 mg q.d., week 16
  Atherogenic index Mean percentage CFB - 24 weeks results: −4.43%
  Atherogenic index Median CFB - 24 weeks results: -0.20 mmol/L
  Atherogenic index Median percentage CFB - 24 weeks results: −4.76%
100 mg q.d., week 20
  Atherogenic index Mean percentage CFB - 24 weeks results: −2.50%
  Atherogenic index Median CFB - 24 weeks results: 0.00 mmol/L
  Atherogenic index Median percentage CFB - 24 weeks results: 0.00%
100 mg q.d., week 24
  Atherogenic index Mean percentage CFB - 24 weeks results: −0.41%
  Atherogenic index Median CFB - 24 weeks results: 0.00 mmol/L
  Atherogenic index Median percentage CFB - 24 weeks results: 0.00%
200 mg q.d., week 1
  Atherogenic index Mean CFB - 12 weeks results: 0.15 mmol/L
  Atherogenic index Mean percentage CFB - 12 weeks results: 4.43%
  Atherogenic index Mean percentage CFB - 24 weeks results: 4.43%
  Atherogenic index Median CFB - 12 weeks results: 0.10 mmol/L
  Atherogenic index Median CFB - 24 weeks results: 0.10 mmol/L
  Atherogenic index Median percentage CFB - 12 weeks results: 1.96%
  Atherogenic index Median percentage CFB - 24 weeks results: 1.96%
200 mg q.d., week 2
  Atherogenic index Mean CFB - 12 weeks results: -0.09 mmol/L
  Atherogenic index Mean percentage CFB - 12 weeks results: −2.14%
  Atherogenic index Mean percentage CFB - 24 weeks results: −2.14%
  Atherogenic index Median CFB - 12 weeks results: 0.00 mmol/L
  Atherogenic index Median CFB - 24 weeks results: 0.00 mmol/L
  Atherogenic index Median percentage CFB - 12 weeks results: 0.00%
  Atherogenic index Median percentage CFB - 24 weeks results: 0.00%
200 mg q.d., week 4
  Atherogenic index Mean CFB - 12 weeks results: -0.18 mmol/L
  Atherogenic index Mean percentage CFB - 12 weeks results: −3.89%
  Atherogenic index Mean percentage CFB - 24 weeks results: −3.89%
  Atherogenic index Median CFB - 12 weeks results: -0.10 mmol/L
  Atherogenic index Median CFB - 24 weeks results: -0.10 mmol/L
  Atherogenic index Median percentage CFB - 12 weeks results: −3.65%
  Atherogenic index Median percentage CFB - 24 weeks results: −3.65%
200 mg q.d., week 8
  Atherogenic index Mean CFB - 12 weeks results: -0.16 mmol/L
  Atherogenic index Mean percentage CFB - 12 weeks results: −3.33%
  Atherogenic index Mean percentage CFB - 24 weeks results: −3.33%
  Atherogenic index Median CFB - 12 weeks results: -0.10 mmol/L
  Atherogenic index Median CFB - 24 weeks results: -0.10 mmol/L
  Atherogenic index Median percentage CFB - 12 weeks results: −3.33%
  Atherogenic index Median percentage CFB - 24 weeks results: −3.33%
200 mg q.d., week 12
  Atherogenic index Mean CFB - 12 weeks results: -0.04 mmol/L
  Atherogenic index Mean percentage CFB - 12 weeks results: 0.54%
  Atherogenic index Mean percentage CFB - 24 weeks results: 0.54%
  Atherogenic index Median CFB - 12 weeks results: 0.00 mmol/L
  Atherogenic index Median CFB - 24 weeks results: 0.00 mmol/L
  Atherogenic index Median percentage CFB - 12 weeks results: 0.00%
  Atherogenic index Median percentage CFB - 24 weeks results: 0.00%
200 mg q.d., week 16
  Atherogenic index Mean percentage CFB - 24 weeks results: 0.42%
  Atherogenic index Median CFB - 24 weeks results: 0.00 mmol/L
  Atherogenic index Median percentage CFB - 24 weeks results: 0.00%
200 mg q.d., week 20
  Atherogenic index Mean percentage CFB - 24 weeks results: −1.40%
  Atherogenic index Median CFB - 24 weeks results: -0.20 mmol/L
  Atherogenic index Median percentage CFB - 24 weeks results: −3.77%
200 mg q.d., week 24
  Atherogenic index Mean percentage CFB - 24 weeks results: 0.92%
  Atherogenic index Median CFB - 24 weeks results: -0.10 mmol/L
  Atherogenic index Median percentage CFB - 24 weeks results: −2.58%
[1]
  Atherogenic index Mean percentage CFB - 24 weeks results: −6.56%
  Atherogenic index Median CFB - 24 weeks results: -0.20 mmol/L
  Atherogenic index Median percentage CFB - 24 weeks results: −5.40%
[2]
  Atherogenic index Mean percentage CFB - 24 weeks results: −5.24%
  Atherogenic index Median CFB - 24 weeks results: -0.30 mmol/L
  Atherogenic index Median percentage CFB - 24 weeks results: −7.87%
[3]
  Atherogenic index Mean percentage CFB - 24 weeks results: −3.22%
  Atherogenic index Median CFB - 24 weeks results: -0.10 mmol/L
  Atherogenic index Median percentage CFB - 24 weeks results: −3.57%
